Legend:
[1] = tested on: NCI 60 cell panel; test: NCI 60 Cell One-Dose Screen; assay type: cell-based, human; details: 1.00E−5 Molar; for Growth Percent, Delta: Delta of the mean graph; for Growth Percent, Mean: Mean over the cell panel; for Growth Percent, Range: Range over the cell panel
Protocol: General Description. As of early 2007 all compounds submitted to the NCI 60 Cell screen are tested initially at a single high dose (10^-5 M) in the full NCI 60 cell panel. Only compounds which satisfy pre-determined threshold inhibition criteria in a minimum number of cell lines will progress to the full 5-dose assay. The threshold inhibition criteria for progression to the 5-dose screen was selected to efficiently capture compounds with anti-proliferative activity based on careful analysis of historical DTP screening data. The threshold criteria may be updated as additional data becomes available.
Interpretation of One-Dose Data. The One-dose data will be reported as a mean graph of the percent growth of treated cells and will be similar in appearance to mean graphs from the 5-dose assay. The number reported for the One-dose assay is growth relative to the no-drug control, and relative to the time zero number of cells. This allows detection of both growth inhibition (values between 0 and 100) and lethality (values less than 0). This is the same as for the 5-dose assay, described below. For example, a value of 100 means no growth inhibition. A value of 40 would mean 60% growth inhibition. A value of 0 means no net growth over the course of the experiment. A value of −40 would mean 40% lethality. A value of −100 means all cells are dead. Information from the One-dose mean graph is available for COMPARE analysis.
The human tumor cell lines of the cancer screening panel are grown in RPMI 1640 medium containing 5% fetal bovine serum and 2 mM L-glutamine. For a typical screening experiment, cells are inoculated into 96 well microtiter plates in 100 μL at plating densities ranging from 5,000 to 40,000 cells/well depending on the doubling time of individual cell lines. After cell inoculation, the microtiter plates are incubated at […], 5% CO2, 95% air and 100% relative humidity for 24 h prior to addition of experimental drugs.
After 24 h, two plates of each cell line are fixed in situ with TCA, to represent a measurement of the cell population for each cell line at the time of drug addition (Tz). Experimental drugs are solubilized in dimethyl sulfoxide at 400-fold the desired final maximum test concentration and stored frozen prior to use. At the time of drug addition, an aliquot of frozen concentrate is thawed and diluted to twice the desired final maximum test concentration with complete medium containing 50 µg/ml gentamicin. Additional four, 10-fold or ½ log serial dilutions are made to provide a total of five drug concentrations plus control. Aliquots of 100 μl of these different drug dilutions are added to the appropriate microtiter wells already containing 100 μl of medium, resulting in the required final drug concentrations.
Following drug addition, the plates are incubated for an additional 48 h at 37° C., 5% CO2, 95% air, and 100% relative humidity. For adherent cells, the assay is terminated by the addition of cold TCA. Cells are fixed in situ by the gentle addition of 50 μl of cold 50% (w/v) TCA (final concentration, 10% TCA) and incubated for 60 minutes at 4° C. The supernatant is discarded, and the plates are washed five times with tap water and air dried. Sulforhodamine B (SRB) solution (100 μl) at 0.4% (w/v) in 1% acetic acid is added to each well, and plates are incubated for 10 minutes at room temperature. After staining, unbound dye is removed by washing five times with 1% acetic acid and the plates are air dried. Bound stain is subsequently solubilized with 10 mM trizma base, and the absorbance is read on an automated plate reader at a wavelength of 515 nm. For suspension cells, the methodology is the same except that the assay is terminated by fixing settled cells at the bottom of the wells by gently adding 50 μl of 80% TCA (final concentration, 16% TCA). […]

[2] = In vitro metabolism, mouse liver microsomes; assay type: in vitro ADME; details: % remaining of compound after 60 min treatment with mouse liver microsomes
Protocol: In vitro metabolism of NUCC-176242 and NUCC-176248 were tested using mouse liver microsomes and a mouse S9 fraction. (See FIG. 9).

[3] = A549/ATCC (Non-Small Cell Lung Cancer)
[4] = EKVX (Non-Small Cell Lung Cancer)
[5] = HOP-62 (Non-Small Cell Lung Cancer)
[6] = HOP-92 (Non-Small Cell Lung Cancer)
[7] = MDA-MB-231/ATCC (Breast Cancer)
[8] = NCI-H23 (Non-Small Cell Lung Cancer)
[9] = NCI-H322M (Non-Small Cell Lung Cancer)
[10] = NCI-H460 (Non-Small Cell Lung Cancer)
[11] = NCI-H522 (Non-Small Cell Lung Cancer)

Cn1nc(C(F)(F)F)cc1-c1ccc(OCc2ccc(Cl)cc2)c(-c2ccc(Cl)c(C(F)(F)F)c2)c1O [NSC: D-804955/1]
Growth Percent ([1]; 786-0 (Renal Cancer)): 28.42% | Growth Percent ([1]; A498 (Renal Cancer)): 5.29% | Growth Percent [1, 3]: 12.83% | Growth Percent ([1]; ACHN (Renal Cancer)): 5.21% | Growth Percent ([1]; BT-549 (Breast Cancer)): 39.82% | Growth Percent ([1]; CAKI-1 (Renal Cancer)): 19.80% | Growth Percent ([1]; CCRF-CEM (Leukemia)): 9.89% | Growth Percent ([1]; COLO 205 (Colon Cancer)): 24.55% | Growth Percent ([1]; DU-145 (Prostate Cancer)): 19.03% | Growth Percent, Delta [1]: 35.96% | Growth Percent [1, 4]: 12.77% | Growth Percent ([1]; HCC-2998 (Colon Cancer)): 13.50% | Growth Percent ([1]; HCT-15 (Colon Cancer)): 8.53% | Growth Percent ([1]; HCT-116 (Colon Cancer)): −0.40% | Growth Percent ([1]; HL-60(TB) (Leukemia)): 9.30% | Growth Percent [1, 5]: 50.48% | Growth Percent [1, 6]: −22.43% | Growth Percent ([1]; HS 578T (Breast Cancer)): 22.83% | Growth Percent ([1]; HT29 (Colon Cancer)): 20.44% | Growth Percent ([1]; IGROV1 (Ovarian Cancer)): 38.95% | Growth Percent ([1]; KM12 (Colon Cancer)): 8.83% | Growth Percent ([1]; LOX IMVI (Melanoma)): 5.24% | Growth Percent ([1]; M14 (Melanoma)): 35.38% | Growth Percent ([1]; MALME-3M (Melanoma)): 12.24% | Growth Percent ([1]; MCF7 (Breast Cancer)): 4.01% | Growth Percent [1, 7]: 8.70% | Growth Percent ([1]; MDA-MB-435 (Melanoma)): 24.66% | Growth Percent ([1]; MDA-MB-468 (Breast Cancer)): −18.75% | Growth Percent ([1]; MOLT-4 (Leukemia)): 12.26% | Growth Percent, Mean [1]: 13.53% | Growth Percent [1, 8]: −6.46% | Growth Percent [1, 9]: 18.15% | Growth Percent [1, 10]: 6.25% | Growth Percent [1, 11]: −13.66% | Growth Percent ([1]; NCI/ADR-RES (Ovarian Cancer)): 8.38% | Growth Percent ([1]; OVCAR-3 (Ovarian Cancer)): 1.24% | Growth Percent ([1]; OVCAR-4 (Ovarian Cancer)): 30.19% | Growth Percent ([1]; OVCAR-5 (Ovarian Cancer)): 53.43% | Growth Percent ([1]; OVCAR-8 (Ovarian Cancer)): 7.41% | Growth Percent ([1]; PC-3 (Prostate Cancer)): 3.78% | Growth Percent ([1]; RPMI-8226 (Leukemia)): −17.88% | Growth Percent, Range [1]: 75.86% | Growth Percent ([1]; SF-268 (CNS Cancer)): 26.01% | Growth Percent ([1]; SF-295 (CNS Cancer)): 12.82% | Growth Percent ([1]; SF-539 (CNS Cancer)): 34.37% | Growth Percent ([1]; SK-MEL-2 (Melanoma)): 1.95% | Growth Percent ([1]; SK-MEL-28 (Melanoma)): 31.16% | Growth Percent ([1]; SK-OV-3 (Ovarian Cancer)): 20.62% | Growth Percent ([1]; SN12C (Renal Cancer)): 6.24% | Growth Percent ([1]; SNB-19 (CNS Cancer)): 19.21% | Growth Percent ([1]; SNB-75 (CNS Cancer)): 47.69% | Growth Percent ([1]; SR (Leukemia)): 25.07% | Growth Percent ([1]; SW-620 (Colon Cancer)): 13.94% | Growth Percent ([1]; T-47D (Breast Cancer)): −0.38% | Growth Percent ([1]; TK-10 (Renal Cancer)): 0.36% | Growth Percent ([1]; U251 (CNS Cancer)): 0.82% | Growth Percent ([1]; UACC-62 (Melanoma)): 19.68% | Growth Percent ([1]; UACC-257 (Melanoma)): 2.35% | Growth Percent ([1]; UO-31 (Renal Cancer)): −6.34%

CC(C)CCOc1ccc(-c2cc(C(F)(F)F)n[nH]2)c(O)c1-c1cncc(C#N)c1 [NSC: D-804956/1]
Growth Percent ([1]; 786-0 (Renal Cancer)): 17.07% | Growth Percent ([1]; A498 (Renal Cancer)): −25.54% | Growth Percent [1, 3]: 10.39% | Growth Percent ([1]; ACHN (Renal Cancer)): 8.84% | Growth Percent ([1]; BT-549 (Breast Cancer)): 6.56% | Growth Percent ([1]; CAKI-1 (Renal Cancer)): 9.47% | Growth Percent ([1]; CCRF-CEM (Leukemia)): 6.67% | Growth Percent ([1]; COLO 205 (Colon Cancer)): 49.05% | Growth Percent ([1]; DU-145 (Prostate Cancer)): 17.95% | Growth Percent, Delta [1]: 40.88% | Growth Percent [1, 4]: 3.52% | Growth Percent ([1]; HCC-2998 (Colon Cancer)): 16.23% | Growth Percent ([1]; HCT-15 (Colon Cancer)): 11.96% | Growth Percent ([1]; HCT-116 (Colon Cancer)): 2.41% | Growth Percent ([1]; HL-60(TB) (Leukemia)): 3.64% | Growth Percent [1, 5]: 5.79% | Growth Percent [1, 6]: −27.95% | Growth Percent ([1]; HS 578T (Breast Cancer)): 17.96% | Growth Percent ([1]; HT29 (Colon Cancer)): 48.91% | Growth Percent ([1]; IGROV1 (Ovarian Cancer)): 46.89% | Growth Percent ([1]; KM12 (Colon Cancer)): 7.94% | Growth Percent ([1]; LOX IMVI (Melanoma)): 5.15% | Growth Percent ([1]; M14 (Melanoma)): 22.46% | Growth Percent ([1]; MALME-3M (Melanoma)): −0.80% | Growth Percent ([1]; MCF7 (Breast Cancer)): 2.95% | Growth Percent [1, 7]: 1.43% | Growth Percent ([1]; MDA-MB-435 (Melanoma)): 7.91% | Growth Percent ([1]; MDA-MB-468 (Breast Cancer)): −26.3% | Growth Percent ([1]; MOLT-4 (Leukemia)): 22.96% | Growth Percent, Mean [1]: 9.05% | Growth Percent [1, 8]: −0.16% | Growth Percent [1, 9]: 12.44% | Growth Percent [1, 10]: 3.48% | Growth Percent [1, 11]: −6.89% | Growth Percent ([1]; NCI/ADR-RES (Ovarian Cancer)): 2.45% | Growth Percent ([1]; OVCAR-3 (Ovarian Cancer)): 2.95% | Growth Percent ([1]; OVCAR-4 (Ovarian Cancer)): 20.48% | Growth Percent ([1]; OVCAR-5 (Ovarian Cancer)): 36.89% | Growth Percent ([1]; OVCAR-8 (Ovarian Cancer)): 12.48% | Growth Percent ([1]; PC-3 (Prostate Cancer)): 1.74% | Growth Percent ([1]; RPMI-8226 (Leukemia)): −31.83% | Growth Percent, Range [1]: 80.88% | Growth Percent ([1]; SF-268 (CNS Cancer)): 21.93% | Growth Percent ([1]; SF-295 (CNS Cancer)): 0.83% | Growth Percent ([1]; SF-539 (CNS Cancer)): 25.17% | Growth Percent ([1]; SK-MEL-2 (Melanoma)): −13.82% | Growth Percent ([1]; SK-MEL-28 (Melanoma)): 33.67% | Growth Percent ([1]; SK-OV-3 (Ovarian Cancer)): −7.94% | Growth Percent ([1]; SN12C (Renal Cancer)): 3.81% | Growth Percent ([1]; SNB-19 (CNS Cancer)): 13.09% | Growth Percent ([1]; SNB-75 (CNS Cancer)): 30.14% | Growth Percent ([1]; SR (Leukemia)): 33.69% | Growth Percent ([1]; SW-620 (Colon Cancer)): 14.25% | Growth Percent ([1]; T-47D (Breast Cancer)): 2.83% | Growth Percent ([1]; TK-10 (Renal Cancer)): 11.38% | Growth Percent ([1]; U251 (CNS Cancer)): 2.85% | Growth Percent ([1]; UACC-62 (Melanoma)): 17.46% | Growth Percent ([1]; UACC-257 (Melanoma)): −14.05% | Growth Percent ([1]; UO-31 (Renal Cancer)): 3.89%

Oc1cc(OCc2ccc(Cl)cc2)ccc1-c1n[nH]c(C(F)(F)F)c1Oc1ccccc1Cl [NUCC-0196342]
MLM % at 60 min [2]: 87.4%

Cn1nc(C(F)(F)F)cc1-c1ccc(OCc2ccc(Cl)cc2)c(-c2cc(C(F)(F)F)cc(C(F)(F)F)c2)c1O [NUCC-0196361]
MLM % at 60 min [2]: 72.9%

Oc1c(-c2cc(C(F)(F)F)[nH]n2)ccc(OCc2ccc(Cl)cc2)c1-c1ccccc1Cl [NUCC-0196363]
MLM % at 60 min [2]: 88.6%

COc1cccc(-c2c(-c3ccc(OCc4ccc(Cl)cc4)cc3O)n[nH]c2C(F)(F)F)c1 [NUCC-0198309]
MLM % at 60 min [2]: 74%

Cn1nc(C(F)(F)F)cc1-c1ccc(OCc2ccc(Cl)cc2)c(-c2cccc(C#N)c2)c1O [NUCC-0198399]
MLM % at 60 min [2]: 80.3%

CCc1c(OCc2ccc(Cl)cc2)ccc(-c2cc(C(F)(F)F)n[nH]2)c1O [NUCC-0200739]
MLM % at 60 min [2]: 46.4%

CCOC(=O)c1cc(-c2ccc(OCc3ccc(Cl)cc3)c(-c3cc(C(F)(F)F)cc(C(F)(F)F)c3)c2O)n[nH]1 [NUCC-0200972]
MLM % at 60 min [2]: 60.3%

Cn1nc(C(F)(F)F)cc1-c1ccc(OCc2ccc(Cl)cc2)cc1C=O [NUCC-0200976]
MLM % at 60 min [2]: 21.8%
